Where two headings read alike, the source gives them in different places.

Data set [1] concerns cellular DNA of tumor and normal rectal mucosa. The experiment in a line: Clinical trial of ci BUdR in locally advanced cervical cancer: DNA incorporation. The data set is classed as in vivo, human.
Data set [2] has the same test system. The conditions noted are these: cited from earlier work.
In data set [3] the test system is cellular DNA of tumor and normal tissues. The experiment in a line: Clinical Phase I/II trials of ci IUdR + RT: % IUdR-DNA cellular incorporation, plasma level, toxicity. The data set is classed as in vivo, human. The procedure:
In the prior clinical Phase I and II trials of continuous intravenous infusions of IUdR+RT for high-grade gliomas (Table 1), high-grade sarcomas (Table 2), in patients with liver metastases for colorectal cancer, and in patients with head and neck cancers, the % IUdR-DNA cellular incorporation was measured in tumor tissue as well as normal tissues, including normal liver and in circulating blood cells (granulocytes).

The nature of data set [4]: in vivo. The procedure: No further dose escalations were used because of the increased risk of pulmonary aspiration with larger drug volumes (≥2000 mg/kg/d).
The conditions of data set [5]: IV IUdR.
Data set [6] has as its system high-grade primary brain tumors. The conditions noted are these: cited from earlier work; for Median survival (Months): RT + IUdR.
Data set [7] has as its system high-grade sarcomas. The conditions noted are these: cited from earlier work.
Data set [8] concerns cellular DNA of tumor and normal tissues. The following applies: cited from earlier work.
For data set [9] the following is noted: IV or IA IUdR; cited from earlier work.
Data set [10] concerns human bladder cancer cell line. The following applies: IUdR for 48 hours prior to one-hour exposure to cisplatin; cited from earlier work.
Data set [11] relates to human bladder and cervical cancer cells. The conditions noted are these: cited from earlier work.

`O=c1[nH]c(=O)n([C@H]2C[C@H](O)[C@@H](CO)O2)cc1Br` [BUdR, bromodeoxyuridine]: in data set [1], the “ratio of tumor to rectum” value is 1.5-1.8 fold. Also, the “tumor cell IUdR-DNA incorporation” value in data set [2] (ci BUdR 1000 mg/M^2/day×4 days, Day 5) is on record as 5-8%. In data set [2] (ci BUdR), the “IUdR-DNA incorporation in adjacent normal rectal mucosa cells” value was 3-4%.
Turning to `O=c1[nH]c(=O)n([C@H]2C[C@H](O)[C@@H](CO)O2)cc1I` [IUdR, 5-iodo-2′-deoxyuridine], the DNA-replacement/day in data set [3] (ci IUdR 1000 mg/M^2, H&N SCC) amounted to 1.3%. In data set [3] (from % IUdR-DNA incorporation at grade 3 or 4 toxicities), the “TI of ci IUdR in the clinical studies” value is listed as roughly 1. In addition, in data set [4] (ci IUdR 100 mg/kg/d, by day 6), the weight loss is given as no less than 20%. Further, in [4] (ci IUdR×6-14 days, xenograft studies), the “GI toxicity, body weight loss” value is listed as greater than 20%. In addition, in data set [4] (mouse, in vivo, po, 250 mg/kg/d), the MTD at 4 days was determined as 250 mg/kg/day. In data set [5], the LD50 entry is on record as “never reached”. For the same molecule, the “Median survival (Months)” value in data set [6] (Anaplastic astrocytomas (Grade 3 of 4), RT alone 24) was 39 Months; in data set [6] (Glioblastoma Multiforme (Grade 4 of 4), RT alone 9), 15 Months. The “prolongation of survival compared to RT alone” value in data set [6] (ci IUdR+RT) is listed as “greater than 50%”. Also, the “Local Control at 2 years” value in [7] (High grade sarcomas (resectable), RT + IUdR + Surgery, RT + Surgery 25%) is given as 45%; in [7] (High grade sarcomas (un-resectable), RT + IUdR, RT alone <10%), 60%. Besides, the “% IUdR-DNA levels” value in [8] (5-7 day ci IUdR infusion, locally advanced head & neck cancers) is greater than 5%. Also, the “IUdR-DNA tumor cell levels (plateau)” value in [8] (ci IUdR 1000 mg/M^2, within 5 days, H&N SCC) is given as 7.5-8%. Also, in data set [8] (ci IUdR exposure that produced clinical responses), the “steady state plasma concentration” value is 1 µM. Besides, the local control entry in data set [8] (ci IUdR+RT, locally advanced head & neck cancers) is “high local control rate”. Also, the “% IUdR-DNA levels in peripheral granulocytes that predicted systemic bone marrow toxicity” value in [8] (ci IUdR) was 6%. Also, the “plasma level of IUdR to achieve >3% IUdR-DNA cellular incorporation” value in [8] (ci IUdR) is greater than 1000 nM. In data set [8] (human, in vivo), the “threshold of % IUdR-DNA tumor cell incorporation associated with in vivo radiosensitization” value was no less than 3%. Also, in data set [8] (human, in vivo), the “toxicities of prolonged ci of IUdR” value is “myelosuppression and acute GI toxicities”. Besides, the “% IUdR-DNA cellular incorporation in tumors” value in data set [8] (patients with head and neck cancers or liver metastases from colorectal cancer) was 5-8%. Further, in data set [8] (patients with liver metastases), the “% IUdR-DNA cellular incorporation in adjacent normal liver tissue” value is recorded as “less than 1%”. For the same molecule, the plasma half-life in [9] was less than 5 min. The “dose-modifying factors at 10% survival” value in data set [10] is reported as “up to 3.5”. Besides, in data set [11] (IUdR (2 μM) + hydroxyurea), the radiation sensitizer enhancement result is recorded as “approximately 1.75”. Further, the “increase in IdUTP pools and IUdR-DNA incorporation” value in data set [11] (IUdR (2 μM) + non-cytotoxic doses of hydroxyurea) is 2 fold.

(Values after patent publication US11058702B2 (EMEK, Inc., priority 2014, dated 2021).)
